The text below walks through data of ChEMBL document CHEMBL5096162, “A review on ferulic acid and analogs based scaffolds for the management of Alzheimer's disease” (Eur J Med Chem, 2021).

Assay [1] deals with T1, Cholinesterase (Equus caballus, UniProt P81908). The assay can be described thus: Inhibition of equine serum BuchE preincubated for 6 mins followed by substrate addition using butyrylthiocholine iodide as substrate by DTNB reagent based Ellman method.
For assay [2], the target named is Amyloid-beta precursor protein (Homo sapiens) (UniProt P05067). The assay can be described thus: Inhibition of self-induced amyloid beta (1 to 42) (unknown origin) aggregation at 20 uM incubated for 46 to 48 hrs in dark by ThT-based fluorimetric assay. To be noted: time 46-48 hrs.
The subject of another assay is PC-12. The assay can be described thus: Neuroprotective activity against amyloid beta (1 to 42)-induced cytotoxicity in rat PC-12 cells assessed as increase in cell viability at 50 uM preincubated for 2 hrs followed by amyloid beta (1 to 42) stimulation and measured after 24 hrs by MTT assay. To be noted: time 26 hrs. It is filed as functional.
In assay [3] the target is T2, Cholinesterase (Homo sapiens, UniProt P06276).
Description: Inhibition of human BuchE preincubated for 6 mins followed by substrate addition using butyrylthiocholine iodide as substrate by DTNB reagent based Ellman method
Assay [4] concerns the target T3, Acetylcholinesterase (Electrophorus electricus, UniProt O42275). The assay can be described thus: Inhibition of electric eel AChE incubated for 15 mins using acetylthiocholine as substrate by Ellman's method. A general note: In Ellman's method for cholinesterases, released thiocholine reacts with DTNB.
Assay [5] deals with T4, Amine oxidase [flavin-containing] B (Homo sapiens, UniProt P27338).
T4 sequence (P27338 whole entry): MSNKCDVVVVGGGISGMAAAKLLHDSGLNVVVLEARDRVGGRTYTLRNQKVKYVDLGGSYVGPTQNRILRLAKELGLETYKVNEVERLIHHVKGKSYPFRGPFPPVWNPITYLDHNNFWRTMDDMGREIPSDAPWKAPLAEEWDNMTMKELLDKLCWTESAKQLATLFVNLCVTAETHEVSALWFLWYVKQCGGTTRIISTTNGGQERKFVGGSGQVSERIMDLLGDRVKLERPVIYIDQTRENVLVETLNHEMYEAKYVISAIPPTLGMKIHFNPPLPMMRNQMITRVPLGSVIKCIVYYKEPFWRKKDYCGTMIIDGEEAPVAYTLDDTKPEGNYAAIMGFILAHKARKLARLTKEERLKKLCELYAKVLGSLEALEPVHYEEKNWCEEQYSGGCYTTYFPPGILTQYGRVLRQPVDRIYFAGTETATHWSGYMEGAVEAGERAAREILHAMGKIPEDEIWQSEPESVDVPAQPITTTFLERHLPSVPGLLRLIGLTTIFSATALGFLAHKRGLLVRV
The assay can be described thus: Inhibition of recombinant human MAO-B assessed as measuring amount of 4-hydroxyquinoline using kynuramine as substrate incubated for 30 mins by fluorescence spectrophotometry.

Assay [6] concerns the target Amyloid-beta precursor protein (Homo sapiens) (UniProt P05067). As to the kind of experiment: Inhibition of self-induced amyloid beta (1 to 42) (unknown origin) aggregation at 25 uM incubated for 24 hrs in dark by ThT-based fluorimetric assay.
Assay [7] has the same target. As to the kind of experiment: Inhibition of self-induced amyloid beta (1 to 42) (unknown origin) aggregation assessed as disaggregation at 25 uM incubated for 24 hrs in dark by ThT-based fluorimetric assay.
Assay [8] has as its target T5, Amine oxidase [flavin-containing] A (Homo sapiens, UniProt P21397).
T5 sequence (P21397 whole entry): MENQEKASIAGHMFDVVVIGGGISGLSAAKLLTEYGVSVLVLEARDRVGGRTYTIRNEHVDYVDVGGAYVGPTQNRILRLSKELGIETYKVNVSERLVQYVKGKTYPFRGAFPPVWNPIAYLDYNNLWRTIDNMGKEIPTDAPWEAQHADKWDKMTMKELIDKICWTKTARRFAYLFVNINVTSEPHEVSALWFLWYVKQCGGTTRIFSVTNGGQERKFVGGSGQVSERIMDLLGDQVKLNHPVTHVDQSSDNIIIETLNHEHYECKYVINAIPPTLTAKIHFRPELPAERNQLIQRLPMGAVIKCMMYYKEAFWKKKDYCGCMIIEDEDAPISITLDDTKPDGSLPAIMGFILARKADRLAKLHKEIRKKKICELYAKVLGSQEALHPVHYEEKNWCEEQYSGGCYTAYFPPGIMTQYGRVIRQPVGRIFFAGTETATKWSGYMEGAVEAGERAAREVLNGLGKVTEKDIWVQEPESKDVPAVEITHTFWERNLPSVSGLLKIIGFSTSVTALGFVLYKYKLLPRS
As to the kind of experiment: Inhibition of recombinant human MAO-A assessed as measuring amount of 4-hydroxyquinoline using kynuramine as substrate incubated for 30 mins by fluorescence spectrophotometry.

For assay [9], the target named is T1, Cholinesterase. As to the kind of experiment: Inhibition of equine BuChE incubated for 15 mins using butyrylthiocholine as substrate by Ellman's method.
Assay [10] can be described thus: Antioxidant activity assessed as trolox equivalent of ORAC radical scavenging activity by ORAC-FL assay. In kind it is functional.
In assay [11] the target is Acetylcholinesterase (Homo sapiens, UniProt P22303). As to the kind of experiment: Inhibition of human AchE preincubated for 15 mins followed by substrate addition and measured for 5 mins using acetylthiocholine iodide as substrate by DTNB reagent based Ellman's method.
The target in assay [12] is T2, Cholinesterase. The assay can be described thus: Inhibition of human BuchE preincubated for 30 mins followed by substrate addition using butyrylthiocholine iodide as substrate by Ellman's method.
Assay [13] concerns the target T3, Acetylcholinesterase. The assay can be described thus: Inhibition of electric eel AchE preincubated for 30 mins followed by substrate addition using acetylthiocholine iodide as substrate by Ellman's method.
Assay [14] has as its target T5, Amine oxidase [flavin-containing] A. As to the kind of experiment: Inhibition of human MAO-A using p-tyramine as substrate preincubated for 15 mins followed by susbtrate addition and measured after 15 mins by HRP and Amplex Red reagent based fluorometric analysis.
Assay [15] addresses T4, Amine oxidase [flavin-containing] B. The assay can be described thus: Inhibition of human MAO-B using p-tyramine as substrate preincubated for 15 mins followed by susbtrate addition and measured after 15 mins by HRP and Amplex Red reagent based fluorometric analysis.
Assay [16] shares this target. As to the kind of experiment: Inhibition of recombinant human MAO-B using kynuramine as substrate preincubated for 15 mins followed by enzyme addition and further incubated for 20 mins by fluorescence microplate reader analysis.
The next assay has as its system SH-SY5Y. The assay can be described thus: Neuroprotective activity against H2O2-induced cytotoxicity in human SH-SY5Y cells assessed as increase in cell viability at 10 uM preincubated for 24 hrs followed by H2O2 stimulation and measured after 24 hrs by MTS assay. In kind it is functional. To be noted: time 48 hrs.
A short description of assay [17]: Antioxidant activity of compound assessed as trolox equivalent of AAPH radical scavenging activity preincubated for 15 mins followed by AAPH addition and measured every 1 min for 60 mins by ORAC-FL assay. In kind it is functional. To be noted: time 75.0 min.
Assay [18] can be described thus: Antioxidant activity assessed as DPPH radical scavenging activity at 200 uM incubated for 2 hrs in dark by spectrophotometric analysis. It is filed as functional.
In assay [19] the target is Amyloid-beta precursor protein (Homo sapiens) (UniProt P05067). As to the kind of experiment: Inhibition of self-induced amyloid beta (1 to 40) (unknown origin) aggregation at 20 uM incubated for 48 hrs by ThT-based fluorimetric assay.

Some results are limits rather than exact numbers.

Sequence of Amyloid-beta precursor protein (Homo sapiens) (P05067 whole entry): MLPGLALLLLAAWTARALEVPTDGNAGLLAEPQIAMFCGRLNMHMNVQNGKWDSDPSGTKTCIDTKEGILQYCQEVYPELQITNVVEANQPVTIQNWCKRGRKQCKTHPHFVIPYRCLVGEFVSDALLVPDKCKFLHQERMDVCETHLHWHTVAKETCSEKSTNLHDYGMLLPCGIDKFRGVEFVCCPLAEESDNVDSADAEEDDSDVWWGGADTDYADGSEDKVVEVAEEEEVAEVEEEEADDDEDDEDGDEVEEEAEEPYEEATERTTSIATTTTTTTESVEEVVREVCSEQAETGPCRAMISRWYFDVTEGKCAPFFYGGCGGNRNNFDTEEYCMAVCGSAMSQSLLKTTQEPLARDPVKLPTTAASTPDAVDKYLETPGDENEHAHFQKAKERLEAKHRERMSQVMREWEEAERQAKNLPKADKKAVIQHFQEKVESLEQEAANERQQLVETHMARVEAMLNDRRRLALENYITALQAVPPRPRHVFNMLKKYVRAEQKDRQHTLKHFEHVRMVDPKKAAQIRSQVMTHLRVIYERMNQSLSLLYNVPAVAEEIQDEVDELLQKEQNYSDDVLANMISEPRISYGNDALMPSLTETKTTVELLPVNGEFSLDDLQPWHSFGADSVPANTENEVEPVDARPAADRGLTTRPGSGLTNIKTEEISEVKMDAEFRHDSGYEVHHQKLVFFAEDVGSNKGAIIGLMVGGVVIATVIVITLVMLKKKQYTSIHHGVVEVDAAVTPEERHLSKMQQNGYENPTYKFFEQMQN
T2 sequence (P06276 whole entry): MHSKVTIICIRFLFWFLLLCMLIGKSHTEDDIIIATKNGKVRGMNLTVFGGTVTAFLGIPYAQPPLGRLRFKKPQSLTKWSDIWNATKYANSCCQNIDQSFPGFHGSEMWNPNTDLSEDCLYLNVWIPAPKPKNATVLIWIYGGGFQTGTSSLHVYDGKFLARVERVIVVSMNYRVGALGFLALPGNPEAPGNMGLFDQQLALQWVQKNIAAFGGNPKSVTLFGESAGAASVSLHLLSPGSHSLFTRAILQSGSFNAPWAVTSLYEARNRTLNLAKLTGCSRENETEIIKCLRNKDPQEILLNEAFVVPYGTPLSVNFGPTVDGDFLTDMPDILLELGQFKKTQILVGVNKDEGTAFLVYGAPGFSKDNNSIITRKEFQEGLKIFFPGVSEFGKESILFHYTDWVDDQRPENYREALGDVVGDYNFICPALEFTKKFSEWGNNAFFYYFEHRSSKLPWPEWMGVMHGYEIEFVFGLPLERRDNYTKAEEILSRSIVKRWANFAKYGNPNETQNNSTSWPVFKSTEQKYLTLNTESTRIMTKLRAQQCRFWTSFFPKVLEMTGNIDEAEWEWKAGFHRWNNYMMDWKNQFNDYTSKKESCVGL
T3 sequence (O42275 whole entry): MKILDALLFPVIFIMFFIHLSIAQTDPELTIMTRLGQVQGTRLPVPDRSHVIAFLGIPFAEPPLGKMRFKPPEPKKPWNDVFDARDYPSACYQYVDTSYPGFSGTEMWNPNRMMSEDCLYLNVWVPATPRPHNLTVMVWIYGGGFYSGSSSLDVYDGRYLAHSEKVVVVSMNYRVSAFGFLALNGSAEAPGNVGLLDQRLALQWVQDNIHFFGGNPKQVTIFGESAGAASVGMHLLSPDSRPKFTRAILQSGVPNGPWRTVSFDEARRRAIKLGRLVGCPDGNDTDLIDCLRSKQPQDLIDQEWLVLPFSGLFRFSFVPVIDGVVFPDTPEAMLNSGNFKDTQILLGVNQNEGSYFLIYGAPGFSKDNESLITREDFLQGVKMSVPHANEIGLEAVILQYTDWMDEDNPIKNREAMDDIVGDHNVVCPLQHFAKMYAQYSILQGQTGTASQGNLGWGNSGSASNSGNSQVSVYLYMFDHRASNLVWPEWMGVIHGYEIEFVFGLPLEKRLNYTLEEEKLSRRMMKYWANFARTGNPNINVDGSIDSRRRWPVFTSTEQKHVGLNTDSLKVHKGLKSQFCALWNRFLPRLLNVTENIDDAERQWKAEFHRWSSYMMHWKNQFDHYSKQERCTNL
T1 sequence (P81908 whole entry): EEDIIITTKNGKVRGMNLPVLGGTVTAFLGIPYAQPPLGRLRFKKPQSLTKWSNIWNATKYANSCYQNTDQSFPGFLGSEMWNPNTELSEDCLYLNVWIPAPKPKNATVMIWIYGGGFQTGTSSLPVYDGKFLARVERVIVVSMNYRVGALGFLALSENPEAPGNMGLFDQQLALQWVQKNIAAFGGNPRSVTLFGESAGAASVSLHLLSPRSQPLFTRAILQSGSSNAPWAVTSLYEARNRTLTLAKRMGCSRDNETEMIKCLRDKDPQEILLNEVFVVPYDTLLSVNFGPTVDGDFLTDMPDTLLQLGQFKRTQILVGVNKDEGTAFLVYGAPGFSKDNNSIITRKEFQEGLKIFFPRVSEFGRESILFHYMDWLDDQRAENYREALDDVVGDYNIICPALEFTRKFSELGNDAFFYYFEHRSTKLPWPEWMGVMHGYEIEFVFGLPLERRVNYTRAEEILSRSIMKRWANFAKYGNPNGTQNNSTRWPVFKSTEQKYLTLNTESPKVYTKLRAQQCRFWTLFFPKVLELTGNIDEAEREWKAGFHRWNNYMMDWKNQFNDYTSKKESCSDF
Sequence of Acetylcholinesterase (Homo sapiens, UniProt P22303) (P22303 whole entry): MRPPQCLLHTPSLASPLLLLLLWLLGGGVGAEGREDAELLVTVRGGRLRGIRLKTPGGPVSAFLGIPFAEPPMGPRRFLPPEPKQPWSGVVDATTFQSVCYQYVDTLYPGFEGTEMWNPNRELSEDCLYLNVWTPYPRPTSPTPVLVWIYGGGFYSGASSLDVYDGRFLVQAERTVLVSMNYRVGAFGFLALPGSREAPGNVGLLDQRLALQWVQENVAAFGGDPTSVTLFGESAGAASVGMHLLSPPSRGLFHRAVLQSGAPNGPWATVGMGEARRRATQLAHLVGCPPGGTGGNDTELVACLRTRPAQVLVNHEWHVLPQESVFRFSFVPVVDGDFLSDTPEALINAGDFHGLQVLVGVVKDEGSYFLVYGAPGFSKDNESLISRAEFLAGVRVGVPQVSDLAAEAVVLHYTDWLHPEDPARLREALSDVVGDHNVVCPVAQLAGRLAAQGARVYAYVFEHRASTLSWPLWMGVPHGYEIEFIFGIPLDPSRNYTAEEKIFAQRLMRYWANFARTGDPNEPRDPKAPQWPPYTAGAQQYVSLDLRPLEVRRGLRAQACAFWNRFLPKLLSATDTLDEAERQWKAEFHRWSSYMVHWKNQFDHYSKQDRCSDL

Take `COc1ccc(/C=C/C(=O)Nc2cc[n+](Cc3ccc(F)cc3)cc2)cc1OC.[Br-]`: the IC50 came out at 0.0026 µM at Cholinesterase [1] and 0.0044 µM against Cholinesterase [3]. Besides, the inhibition in assay [2] is 65.6%. Also, in the assay with PC-12, the Activity came to 66.6%.

For `COc1cc(/C=C/C(=O)N2CCc3ccccc3C2)ccc1OCCCCN(CNCc1ccccc1)CNCc1ccccc1`, the 50% inhibitory concentration (IC50) against Acetylcholinesterase [4] worked out at 12.1 µM; in [5], 8.6 µM; in assay [8], 6.3 µM; against Cholinesterase [9] it was 8.93 µM. For the same molecule, the inhibition is 59.3% in [6] and 43.8% in assay [7]. The Activity in [10] was 0.52 equiv.

For the molecule `C[N+](C)(C)CCNC(=O)/C=C/c1ccc(O)c(O)c1`, inhibition on Acetylcholinesterase [11] was half-maximal at 7.3 µM (IC50).

Regarding `COc1cc(/C=C/C(=O)O[C@H]2C[C@H]3O[C@H](OC(=O)Nc4ccccc4)C[C@H]3O2)ccc1O`, the half-inhibitory concentration (IC50) came to 29.2 µM against Cholinesterase [12] and 27.1 µM on Acetylcholinesterase [13].

In the case of `COc1ccc(/C=C/C(=O)NCCc2ccccc2)cc1O`, the results for the Ki in assay [14] and in assay [15] were 1.95 µM and 0.11 µM, respectively.

On to `O=C(/C=C/c1ccc(O)cc1)OCCc1ccccc1`, for which the IC50 in [16] was found to be 0.013 µM.

Regarding `O=C(NCc1ccccc1)C(c1cc2ccccc2nc1Cl)N(Cc1ccccc1)C(=O)/C=C/c1ccc(O)c(O)c1` (stereo unspecified), the results for the Activity (with SH-SY5Y; in assay [17]; in [18]) were 21.87%, 6.86 equiv and greater than 77%, respectively. Further, in [19], the inhibition was found to be 62.7%.

Usually IC50 stands for the concentration at which inhibition is half-maximal. By inhibition is commonly meant the drop in the measured response relative to a control, in per cent. As usually defined, the Ki is a measure of affinity in units of concentration, obtained from inhibition or displacement. Low readings indicate higher affinity, high ones lower affinity.
